In PMC8873228, “In-depth comparison of the metabolic and pharmacokinetic behaviour of the structurally related synthetic cannabinoids AMB-FUBINACA and AMB-CHMICA in rats” (Communications Biology, 2022):
Entries after “also recorded” stand apart in the source; their conditions may differ. Read-outs that look alike come from different tables or passages of the source.

How the values were obtained:
[1] = Quantification of parent compounds and O-demethyl metabolites in rat brain, liver, kidney, serum and urine by UHPLC-HRMS after intraperitoneal injection; type: in vivo, male Sprague-Dawley rats; settings: 1 mg/kg i.p.; for concentration at 30 min: 30 min after injection
Description: 8 male Sprague-Dawley rats (8 weeks old, weighing between 385 and 425 g) were used as animal models (Janvier Labs, Le Genest-Saint-Isle, France). Animals were housed individually in polypropylene plastic cages under controlled temperature (24 ± 2 °C) and lighting conditions (12 h:12 h; lights ON at 8 AM), with ad libitum access to food and water. Before SCRA injection, animals were handled and habituated to the experimental room for 1 week. All the experiments were approved by the Committee of Ethics and Animal Experimentation of Universitat Jaume I (2019/VSC/PEA/048) and treated throughout according to the European Union Council Directive of June 3rd, 2010 (6106/1/10 REV1).
SCRAs were dosed intraperitoneally at 1 mg/kg. This dose was selected based on similar studies reported in literature. The solution used for injection was prepared at 1 mg/mL in physiological saline solution containing 5% ethanol. Between 385 and 425 µL of that solution were injected depending on animal weight. Blood (serum), liver, brain, and kidney samples were dissected 15, 30, and 180 min after injection (previously anesthetised with CO2 and decapitated immediately). Blood was collected mainly from carotid arteries and jugular veins and kept at room temperature for 30 min to elicit coagulation. Then, blood was centrifuged 10 min at 2000 rcf at 4 °C in order to separate serum from sedimented clot. Liver, kidney, and brain were rapidly dissected and snap-freezing in liquid nitrogen. One animal was used for each dissection time. Additional serum, liver, brain, and kidney samples were obtained from an animal 48 h after being SCRA-dosed, and used as control. Urine samples were collected at 30, 60, 90, 120, 180, 240, 300, and 360 min, together with an additional sample at 24 h (composite urine sample between 360 min and 24 h, collected from animal dissected at 48 h). Urine samples were obtained from the bottom of the cage at the indicated time. Additionally, urine sample collected from one of the animals prior to injection was used as control. Samples were snap-frozen in liquid nitrogen after collection, and preserved at −23 °C until analysis.
Solid samples (brain, liver, and kidney) were crushed with dry ice using an electric grinder. 0.1 g were accurately weighed (±0.1 mg) in 1.5 mL polypropylene tubes, and 0.3 mL of acetonitrile acidified with 1% of formic acid were added for extraction. After that, samples were sonicated for 5 min, followed by 30 min of vortex agitation. Samples were then frozen for 30 min in order to increase protein removal. Finally, they were centrifuged at 12,500 rfc during 15 min, and the supernatant was 10-fold diluted with ultrapure water for UHPLC-HRMS analysis.
Similarly to solid samples, samples were frozen for 30 min, centrifuged at 12,500 rfc for 15 min, and the supernatant 10-fold diluted with ultrapure water for UHPLC-HRMS analysis.
For parent compounds and O-demethyl metabolites estimated quantification, a calibration line in solvent from 2.5 to 250 ng/mL was included in each batch analysis, as well as different quality control samples (QCs) prepared with blank extracts and spiked at 200 ng/mL for evaluating matrix effect and apply a correction factor.
Samples were analysed using an Acquity ultra-performance liquid chromatography (UPLC) system (Waters Corp, Mildford, MA, USA) coupled to a Xevo G2 QTOF (Waters Corp, Manchester, UK) mass spectrometer with quadrupole time-of-flight (QTOF) hybrid mass analyser.
Chromatographic separation was performed using a Cortecs T3 100 ×2.1 mm, 1.6 µm particle size analytical column (Waters Corp, Wexford, Ireland), maintained at 40 °C. […] Injection volume was 50 µL.

pooled human hepatocytes = settings: AMB-FUBINACA incubated with pooled human hepatocytes; cited from earlier work
[2] = 15 min after injection, one sample, estimated concentration, 1 mg/kg
[3] = male, Sprague-Dawley, brain, ip, 1 mg/kg, 15 min after injection, one sample, estimated concentration, read-out: Brain concentration
[4] = male, Sprague-Dawley, brain, ip, 1 mg/kg, one sample, estimated concentration, read-out: Brain concentration
[5] = male, Sprague-Dawley, brain/serum, ip, read-out: Brain/serum ratio, tissue (ng/g)/serum (ng/mL)
[6] = male, Sprague-Dawley, kidney, ip, 1 mg/kg, 15 min after injection, one sample, estimated concentration, read-out: Kidney concentration
[7] = male, Sprague-Dawley, kidney, ip, 1 mg/kg, one sample, estimated concentration, read-out: Kidney concentration
[8] = male, Sprague-Dawley, kidney/serum, ip, read-out: Kidney/serum ratio, tissue (ng/g)/serum (ng/mL)
[9] = male, Sprague-Dawley, liver, ip, 1 mg/kg, 15 min after injection, one sample, estimated concentration, read-out: Liver concentration
[10] = male, Sprague-Dawley, liver, ip, 1 mg/kg, one sample, estimated concentration, read-out: Liver concentration
[11] = male, Sprague-Dawley, liver, ip, 1 mg/kg, 180 min after injection, one sample, estimated concentration, read-out: Liver concentration
[12] = male, Sprague-Dawley, liver/serum, ip, read-out: Liver/serum ratio, tissue (ng/g)/serum (ng/mL)
[13] = male, Sprague-Dawley, liver/serum, ip, 180 min, read-out: Liver/serum ratio, tissue (ng/g)/serum (ng/mL)
[14] = male, Sprague-Dawley, serum, ip, 1 mg/kg, 15 min after injection, one sample, estimated concentration, read-out: Serum concentration
[15] = male, Sprague-Dawley, serum, ip, 1 mg/kg, one sample, estimated concentration, read-out: Serum concentration
[16] = male, Sprague-Dawley, serum, ip, 1 mg/kg, 180 min after injection, one sample, estimated concentration, read-out: Serum concentration
[17] = 48 h after injection, one sample, estimated concentration, 1 mg/kg
[18] = male, Sprague-Dawley, kidney, ip, 1 mg/kg, 180 min after injection, one sample, estimated concentration, read-out: Kidney concentration

SMILES	Brain concentration [1, 2]	concentration at 15 min [1, 3]	concentration at 30 min [1, 4]	Kp at 15 min [1, 5]	Kp at 30 min [1, 5]	concentration at 15 min [1, 6]	concentration at 30 min [1, 7]	Kp at 15 min [1, 8]	Kp at 30 min [1, 8]	concentration at 15 min [1, 9]	concentration at 30 min [1, 10]	concentration at 180 min [1, 11]	Kp at 15 min [1, 12]	Kp at 30 min [1, 12]	Kp at 180 min [1, 13]	concentration at 15 min [1, 14]	concentration at 30 min [1, 15]	concentration at 180 min [1, 16]	Liver concentration [1, 2]	concentration at 180 min [1, 18]	further results
COC(=O)C(NC(=O)c1cn(CC2CCCCC2)c2ccccc12)C(C)C (stereo not drawn) [AMB-CHMICA]	21.3 ng/g	21 ng/g	20.7 ng/g	0.47	0.31	36.5 ng/g	66 ng/g	0.81	1	846 ng/g	874 ng/g	< 5 ng/g	18.8	13.3	1.18	45.1 ng/mL	65.9 ng/mL	3.93 ng/mL			Liver concentration ([1]; 180 min after injection, one sample, estimated concentration, 1 mg/kg): 4.64 ng/g
CC(C)C(NC(=O)c1nn(Cc2ccc(F)cc2)c2ccccc12)C(=O)O (stereo not drawn) [O-demethyl AMB-FUBINACA]			3.83 ng/g		0.05	12.5 ng/g	27.4 ng/g	0.5	0.36	110 ng/g	356 ng/g	265 ng/g	4.47	4.63	1.94	25 ng/mL	76.8 ng/mL	136 ng/mL	111 ng/g	43.7 ng/g	Incubation time after which the O-demethyl metabolite was the major compound in incubation media (pooled human hepatocytes): 2 to 3 min; Serum concentration [1, 2]: 24.9 ng/mL; Urine concentration ([1]; 24 h (composite urine 360 min to 24 h)): 7.33 ng/mL; Liver concentration [1, 17]: 31.49 ng/g; Serum concentration [1, 17]: 5.72 ng/mL; Kp at 180 min ([1]; male, Sprague-Dawley, kidney/serum, ip, 180 min, read-out: Kidney/serum ratio, tissue (ng/g)/serum (ng/mL)): 0.32; concentration at 48 h ([1]; male, Sprague-Dawley, liver, ip, 1 mg/kg, 48 h after injection, one sample, estimated concentration, read-out: Liver concentration): 31 ng/g; concentration at 48 h ([1]; male, Sprague-Dawley, serum, ip, 1 mg/kg, 48 h after injection, one sample, estimated concentration, read-out: Serum concentration): 6 ng/mL; concentration at 180 min ([1]; male, Sprague-Dawley, urine, ip, 1 mg/kg, 180 min, read-out: Urine concentration): 5.78 ng/mL; concentration at 300 min ([1]; male, Sprague-Dawley, urine, ip, 1 mg/kg, 300 min): 1.13 ng/mL
COC(=O)C(NC(=O)c1nn(Cc2ccc(F)cc2)c2ccccc12)C(C)C (stereo not drawn) [AMB-FUBINACA]	57.2 ng/g	57 ng/g	18.4 ng/g	4.38	6.05	42.6 ng/g	16.4 ng/g	3.27	5.42	7 ng/g	4.59 ng/g		0.56	1.52		13 ng/mL	3.03 ng/mL		7.25 ng/g	3.36 ng/g	Liver concentration ([1]; 180 min after injection, one sample, estimated concentration): no longer detected; Blood-brain barrier permeability compared by brain/serum concentration ratio ([1]; at measured time points, versus AMB-CHMICA, 1 mg/kg): higher permeability than AMB-CHMICA (up to ten times); also recorded: around ten-fold more permeable than AMB-CHMICA; concentration at 180 min ([1]; male, Sprague-Dawley, brain, ip, 1 mg/kg, 180 min after injection, one sample, estimated concentration, read-out: Brain concentration): 2.64 ng/g
